Data set [1] can be described thus: Volume of distribution of FITC-Elohaes compared with Evans Blue labelled albumin in healthy and endotoxic newborn piglets. To be noted: approx 1.0 mg/kg, individual piglets and mean; for Vd: pig, in vivo, iv, 1 mg/kg. The method, then:
Seventeen piglets were used in this study. The animals were randomised into two groups, a healthy (control) group and an Escherichia coli (endotoxic) group. The animals of the endotoxic group received a bolus injection of E. coli (1.667 μg/kg), followed by a continuous infusion of E. coli (1.667 μg/kg/hr) throughout the experiment. The control group received the same dose of isotonic saline injection and infusion. Approximately 30 minutes thereafter, a sample of blood (0.6 ml) was obtained from the femoral vein catheter prior to injection of the plasma marker. A volume between 0.5 ml and 1.0 ml of the indicator was injected {of approximately 1.0 mg/kg for both plasma markers} via the femoral vein catheter into the bloodstream. The catheter was then flushed clean with an equal volume of isotonic saline. […] As before, following the withdrawal of each sample, the catheter was flushed with an equal volume of isotonic saline. Samples were obtained at various time intervals over a 6 hour period, the majority were collected within the first hour after administration of the plasma marker. Blood samples were then centrifuged at approximately 2500 r.p.m for 10-15 minutes and plasma/serum withdrawn.

Data set [2] can be described thus: Volume of distribution (plasma volume) of FITC-Elohaes compared to Evans Blue labelled albumin in healthy rabbits. To be noted: both, rabbit, in vivo, 0.2 mg/ml.
Experimental: All rabbits used were adults of either sex, weighing approximately 3 kg. Both ears of the rabbit were first anaesthetised by topical application of Elma cream about 30 minutes prior to commencement of the procedure. A small cut was made into the left ear vein, using a scalpel, to enable relatively simple blood sampling. A sample of blood (approximately 1.0 ml) was obtained from the cut ear vein and collected into tubes coated with anti-coagulant (EDTA). […] A mixing time of at least 5 minutes was allowed before blood sampling began. Blood samples (≈1.0 ml) were then withdrawn at various time intervals following injection, up to a maximum of 2 days. Most samples were collected within the first 3 hours and no more than 9 post-injection blood samples were taken from each rabbit. The blood samples were then centrifuged {Centaur 2} at 2300 r.p.m. for 10-15 minutes and the plasma withdrawn.
The minimisation procedure was obtained from the NAG library {Numerical Algorithms Group, Oxford; Routine E04FCF:NAGFLIB:1652/0: Mk7: December 1978}. This routine was called by a programme, written by the user and incorporated a subroutine with the appropriate mathematical equation. […]
Thus, the volume of distribution was calculated from the degree of dilution (El-Sayed et al., 1995).
The mark [3] stands for this setting: endotoxic (E. coli) newborn piglets.

Several values for one entry are separate records, joined by “and”; a condition that tells them apart may be missing. Identical values can stand only once.

On to `Cc1cc(-c2ccc(/N=N/c3ccc4c(S(=O)(=O)O)cc(S(=O)(=O)O)c(N)c4c3O)c(C)c2)ccc1/N=N/c1ccc2c(S(=O)(=O)O)cc(S(=O)(=O)O)c(N)c2c1O` [Evans Blue], for which the VD in data set [1] (setting [3]) was 0.1401 L/kg and 0.0917 L/kg and 0.1138 L/kg and 0.1129 L/kg and 0.0783 L/kg; in data set [1] (healthy newborn piglets), 0.0851 L/kg and 0.0862 L/kg and 0.0835 L/kg and 0.0869 L/kg. Moreover, the Vd (as a rule, the apparent volume that relates the amount in the body to the concentration in plasma or blood) came out at 0.0983 L/kg in data set [1] (setting [3]), 0.0896 L/kg in data set [1] (healthy newborn piglets) and 0.0531 L/kg in data set [2].
